# Values of other authors, collected in US12569628B2, “Delivery of medicinal gas in a liquid medium” (Third Pole, Inc., priority 2022, dated 2026).
# Like-named read-outs stand apart in the source and are kept apart here.
# Columns and labels:
# immune system = details: low concentrations
compound,measurement,setting,value
"[N]=O [NO, nitric oxide]",Henry's law constant kH,NO in alcohol,approximately 6.65×10^−5 mol/m^3 Pa
same,Henry's law constant kH,NO in water,1.9×10^−5 mol/m^3 Pa
same,concentration at which NO stimulates the immune system,immune system,10^−12 to 10^−9 M
